The test system of data set [1] is EKVX cells associated with non-small cell lung cancer. The data set is described as follows: NCI DTP cancer cell growth inhibition, EKVX. The conditions noted are these: a large negative number denotes stronger activity. The data set is classed as cell-based. The protocol: (§1) A detailed evaluation of cancer cell growth inhibition effect for T111-T115 was conducted by the NIH-National […] (NCI) Developmental Therapeutic Program (DTP) (FIG. 4). A large negative number denotes stronger activity.

Data set [2] concerns NCI-H522 cells associated with non-small cell lung cancer. The data set is described as follows: NCI DTP cancer cell growth inhibition, NCI-H522. Type of data set: cell-based. The following applies: a large negative number denotes stronger activity. The protocol:
as §1

For data set [3], the system named is NCI-H322M cells associated with non-small cell lung cancer. The data set is described as follows: NCI DTP cancer cell growth inhibition, NCI-H322M. The data set is classed as cell-based. The conditions noted are these: a large negative number denotes stronger activity. As for the experimental part: as §1
The test system of another data set is 60-cell line panel. The data set is described as follows: NCI DTP cancer cell growth inhibition, 60-cell line panel overall. The data set is classed as cell-based. The conditions noted are these: across the 60-cell line panel. The protocol:
as §1

SMILES strings stand for the structures.

By melting point is commonly meant the temperature, or range, at which the solid turns liquid.

With `COc1ccc(-n2cnnc2-c2cc(OC)c(OC)c(OC)c2)cc1O` [Compound T113, 3-(3,4,5-trimethoxyl)phenyl-4-(3-hydroxyl, 4-methoxyl)phenyl-1,2,4(H)triazole], the melting point lay in the range of 197 to 198 °C.
On the same count and under the same terms, as for `COc1ccc(-n2cnnc2-c2cc(OC)c(OC)c(OC)c2)cc1F`, the figure is 151 to 152 °C.
In turn, `COc1cc(-c2nncn2-c2ccc3c(ccn3C)c2)cc(OC)c1OC` [Compound T115] registered a melting point of 157 to 159 °C. Moreover, the “growth inhibition (log 10GI50)” value in data set [1] was less than −8.00. In data set [2], the “growth inhibition (log 10GI50)” value is reported as less than −8.00. Moreover, the “growth inhibition (log 10GI50)” value in data set [3] was less than −8.00. In addition, the “overall growth inhibition performance” value with 60-cell line panel is “performed uniformly well”.
Molecule `COc1cc(-c2nncn2-c2ccc(N(C)C)cc2)cc(OC)c1OC` [Compound T112, 3-(3,4,5-trimethoxyl)phenyl-4-(N,N-dimethylamino) phenyl-1,2,4(H)triazole] had a melting point of 145 to 147 °C.
`COc1ccc(-n2cnnc2-c2cc(OC)c(OC)c(OC)c2)cc1` [Compound T111, 3-(3,4,5-trimethoxyl)phenyl-4-(4-methoxyl)phenyl-1,2,4(H)triazole]: the melting point was 163 to 165 °C.

For the origin of these results see patent publication US8569350B2, “Anti-mitotic anti-proliferative compounds” (Rutgers, The State University of New Jersey, priority 2004, dated 2013).
